According to patent publication US20210267944A1 (BioXcel Therapeutics, Inc., priority 2018, published 2021):
Structures can show the parent of a compound that is named as a salt. Where two headings read alike, the source gives them in different places.

Conditions: SDAT
[1] = Post-ECG, After stopping of Dose

Cc1cccc([C@H](C)c2cnc[nH]2)c1C [dexmedetomidine hydrochloride]
QTc interval, Max [1]: 592 | QTc interval, Mean ± SD [1]: 462.9 ± 73.04 | QTc interval, Median [1]: 441.0 | QTc interval, Min [1]: 370 | QTc interval, Max (Pre-ECG, Before Dosing): 524 | QTc interval, Mean ± SD (Pre-ECG, Before Dosing): 447.2 ± 35.51 | QTc interval, Median (Pre-ECG, Before Dosing): 444.3 | QTc interval, Min (Pre-ECG, Before Dosing): 398
